# Measurements: patent US20260085058A1, “DEGRADERS OF SON OF SEVENLESS HOMOLOG 1” (H. LEE MOFFITT CANCER CENTER AND RESEARCH INSTITUTE, INC., priority 2022, published 2026)
# Tested on: Annexin V
# Assay: Annexin V expression by IHC in CRC patient-derived organoid models
# Type: cell-based, human
# Conditions: MCC19990-010 and MCC19990-013 PDOs, 1 μM, 24 hours, vs DMSO
# Experimental: To one or two confluent wells of organoids was added 1:5 diluted 500 μL of 5 units/mL dispase in HBSS (StemCell: 07913) and incubated at 37° C. in 5% CO2 atmosphere. Organoids were harvested and transferred to a 1.5 mL Eppendorf tube. The pellet was collected after centrifugation at 1500 rpm for 6 min, and washed with 1×PBS. The pellet was resuspended in 1 mL of 4% PFA and incubated at 4° C. overnight. The pellet was resuspended in 100 μL of 37° C. warmed histogel, centrifuged at 1000 rpm for 30 seconds to settle the organoids. The gel was allowed to polymerize at 4° C. for 10 minutes and then the plug was transferred to a 5 mL tube containing 2 mL 70% ethanol, and sent to the histology lab. Organoids were paraffin-embedded and subjected to serial sections for hematoxylin and eosin staining and immunohistochemistry following a common procedure at the histology lab. The slides/sections were cut at 4 micron thickness using a Leica RM2245 microtome. Charged slides were used.
# Immunohistochemical staining of SOS1 on organoids: Slides were stained using a Ventana Discovery Ultra automated system (Ventana Medical Systems, Tucson, AZ) as per manufacturer's protocol with proprietary reagents. Briefly, slides were deparaffinized on the automated system with Discovery Wash Solution (Ventana). Heat-induced antigen retrieval method was used in Cell Conditioning 1 Mild (Ventana). […]
structure (smiles),measurement,value
"COc1cc2c(N[C@H](C)c3cc(N)cc(C(F)(F)F)c3)nc(C)nc2cc1OCC(=O)Nc1cccc2c1CN(C1CCC(=O)NC1=O)C2=O (stereo partly drawn) [P7, 2-((4-(((R)-1-(3-amino-S-(trifluoromethyl)phenyl)ethyl)amino)-6-methoxy-2-methylquinazolin-7-yl)oxy)-N-(2-(2,6-dioxopiperidin-3-yl)-1-oxoisoindolin-4-yl)acetamide]",Annexin V expression by IHC,increased membranous expression of Annexin V
